Results from patent US10993923B2, “Method for ameliorating fibrosis using 1-[4-chloro-3-(trifluoromethyl)phenyl]-3-[3-(4-cyanophenoxy)phenyl]urea” (priority 2016, dated 2021).

What was measured:
[1] = test system: CCl4-induced hepatic fibrosis in mice; assay: CCl4-induced hepatic fibrosis mice treatment model; format: in vivo, male C57BL/6J mice
From the text: In male C57BL/6J mice, liver fibrosis was induced by carbon tetrachloride (CCl4). The mice were given peritoneal injection of carbon tetrachloride for 4 or 8 weeks every two weeks.
(§1) The mice liver samples were stored in 10% formaldehyde, dehydrated with gradient alcohol, embedded in paraffin blocks, sectioned to a thickness of 3 μm, placed on glass slides, and stained with Picrosirius Red Stain kit (ScyTek, USA), following the manufacturer's instructions. The severity of liver fibrosis was graded according to the Ishak fibrosis score. Quantitative collagen-positive area (qCPA) was determined by densitometry via ImageJ software. Hepatic hydroxyproline concentrations were measured by the hydroxyproline assay kit (Biovision, USA), following the manufacturer's instructions Immunohistochemistry was performed by the Leica BOND-MAX automatic chromatograph (Leica Biosystems, Germany), following the manufacturer's instructions.
Continuous variables are presented as mean (standard error), and categorical data are presented as number (percentage), as appropriate. Differences between subgroups were evaluated using the Student t test. Spearman's correlation was used for the association between SHP-1 and serum alanine aminotransferase (ALT). The mouse survival rate was estimated using the Kaplan-Meier method. The log-rank test was used to determine the statistical differences in survival of the different experimental groups. Statistical analysis was performed using STATA (version 13, Stata Corp, College Station, Tex., USA). All tests were two-sided, and P<0.05 was considered significant.

[2] = test system: p-STAT3 in mouse fibroblasts (NIH3T3 cell line); assay: Western blot of p-STAT3 in NIH3T3 fibroblasts; format: cell-based; settings: FIG. 7B
Method: (§2) Murine NIH3T3 fibroblasts and human lung epithelial cells (A549 cells) were purchased from the Bioresource Collection and Research Center (Hsinchu, Taiwan). Cells were cultured in Dulbecco's modified eagle medium (DMEM) containing 10% fetal bovine serum (FBS), 100 μg/mL penicillin, 100 μg/mL streptomycin. Cells were cultured at 37° C. in a humidified atmosphere of 5% CO2 and passaged every 4 to 5 days at 1:4 ratios.
(§3) Whole-cell extracts were obtained via RIPA buffer (Millipore, USA) and protein concentrations were quantified via a BCA protein assay kit (Thermo Fisher Scientific, USA). 20 or 25 μg of protein was added to various percentages of SDS-sodium dodecyl sulfate-acrylamide gel and blotted onto a polyvinylidene fluoride (PVDF) membrane. The membrane was then reacted with a primary antibody; after extensive washing, the membrane was reacted with a […] containing a second antibody. Proteins were detected by Immobilon Western Chemiluminescent HRP substrate (Millipore, USA) or ECL detection system (UVP Corporation, USA).
Antibodies for immunoblotting techniques such as anti-E-cadherin, anti-Fibronectin, anti-N-cadherin were purchased from Abcam (UK). […]

[3] = test system: mouse fibroblasts (NIH3T3 cell line); assay: Apoptosis analysis, NIH3T3 fibroblasts; format: cell-based
Method: as §2
The measurement of apoptotic cells was conducted by flow cytometry (sub-G1) and cell death detection enzyme-bound immunosorbent assay (ELISA) for cytoplasmic histone associated DNA fragments. The amount of formazan dye was quantified by measuring the absorbance at 570 nm using ELISA reader to calculate the optical density (OD) values. Statistical analysis was determined using Student's t-test, with P<0.05 considered significant.
STAT3 cDNA (KIAA1524) was purchased from Addgene Platinum Corporation. After the transient transfection of STAT3, SHP-1, SHP-1(dN1) mutants and SHP-1(61A) mutant in mouse fibroblasts (NIH3T3 cell line) and human lung epithelial cells (A549 cell line), cells were reacted separately with the 1-[4-chloro-3-(trifluoromethyl)phenyl]-3-[3-(4-cyanophenoxy)phenyl]urea compound and subjected to the Western blotting process. Transfection was performed by X-tremeGENE HP Transfection Reagent (Roche, Germany) following the manufacturer's instructions. […]

[4] = test system: BDL-induced cholestasis fibrosis in mice; assay: Bile duct ligation (BDL) fibrosis mice treatment model; format: in vivo, Balb/C mice; settings: 10 mg/kg from day 8 until sacrifice on day 14 following BDL; FIG. 13C, 13D
From the text: In the bile duct ligation (BDL) mouse model, the common bile duct of Balb/C mice was double-ligated and excised. Mice were fed daily with vehicle or 1-[4-chloro-3-(trifluoromethyl)phenyl]-3-[3-(4-cyanophenoxy)phenyl]urea on day 1 or day 8 until they were sacrificed on day 14.
as §1

[5] = test system: hepatic stellate cells (HSC); assay: Western blot in hepatic stellate cells (cell line not given); format: cell-based
Method: Rat immortal hepatic stellate cell line HSC-T6 and LX2 human hepatic stellate cell line were provided by Professor Scott Friedman of Mount Sinai Hospital in New York, USA. The primary mouse HSCs were obtained via the way: after intubating the hepatic portal vein of the mouse, the cells were perfused with Leffert's and ethylene glycol bis-aminoethyl ether tetraacetic acid (EGTA) buffer in situ, and then collagenase was injected to digest the liver tissue, and then the primary mouse HSCs were isolated by Histodnz gradient. HSC-T6 cells were cultured in Waymouth medium; LX2 cells and primary mouse HSCs were cultured in Dulbecco's Modified Eagle Medium (DMEM) containing 10% fetal bovine serum (FBS), 100 μg/mL penicillin, 100 μg/mL streptomycin, and 2 mM L-glutamine HSC-T6 cells, LX2 cells and primary mouse HSCs were cultured in a humidified incubator containing 5% carbon dioxide at 37° C. After adding the FBS, the resting HSC is started. For in vitro studies, various concentrations of 1-[4-chloro-3-(trifluoromethyl)phenyl]-3-[3-(4-cyanophenoxy)phenyl]urea and sorafenib were dissolved in dimethyl sulfoxide and subsequently added to cells, which were in 5% FBS, for a predetermined period of time.
as §3, with “Corporation, USA). […]” for “Corporation, USA).”

N#Cc1ccc(Oc2cccc(NC(=O)Nc3ccc(Cl)c(C(F)(F)F)c3)c2)cc1 [1-[4-chloro-3-(trifluoromethyl)phenyl]-3-[3-(4-cyanophenoxy)phenyl]urea]
survival compared with the sorafenib treatment ([1]; 10 mg/kg, log rank P=0.0671, FIG. 12E): tendency to yield higher survival | survival rate compared with the control group ([1]; 10 mg/kg, log-rank P=0.0291, FIG. 12E): significantly improved the survival rate | anti-fibrotic activity in qCPA, Ishak fibrosis score and hydroxyproline concentration ([1]; 5, 10, or 20 mg/kg, FIG. 12B-12D): increasing anti-fibrotic activity | hepatic fibrosis (picrosirius red staining) ([1]; compound 5, 10, or 20 mg/kg or sorafenib 10 mg/kg, with CCl4 for 6 weeks after 2 weeks CCl4 induction, FIG. 12A): significantly improved hepatic fibrosis | expression level of p-STAT3 [2]: reduced | compound-induced apoptosis after SHP-1 knockout ([3]; NIH3T3, SHP-1 siRNA, FIG. 7D): offset by SHP-1 knockout | apoptosis of fibrotic cells ([3]; NIH3T3, FIG. 7C): induced apoptosis | quantitative collagen-positive area (qCPA) [4]: significantly reduced | IL-6-induced p-STAT3 upregulation ([5]; 10 μM for 4 hours, then IL-6 100 ng/mL 30 minutes, FIG. 15B): suppressed | cleavage of poly(ADP-ribose) polymerase (PARP) fragments ([5]; Western blotting, FIG. 14C): dose-dependently increased | p-Akt and p-STAT3 after administering AG1295, a specific PDGFR inhibitor ([5]; independent of the PDGFR signaling, FIG. 15D): still downregulated
